# Data published in patent US20240158418A1 (C4 Therapeutics, Inc., priority 2021, published 2024).
# How the values were obtained:
# Format in all cases: cell-based
# [1] = target: T1, EGFR L858R-T790M (Homo sapiens, UniProt P00533, L858R/T790M); experiment: EGFR degradation, Total EGFR (L858R-specific) HTRF, NCI-H1975; details: Table 9B; NCI-H1975 cells, 6 hours, Total EGFR HTRF; read-out: H1975 EGFR DC50
# T1 construct: NCI-H1975 (harboring EGFR heterozygous L858R-T790M mutations); host or cells: NCI-H1975
# How it was run: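 HTRF read-outs: pY1068 phospho-EGFR for IC50; total EGFR (pan-EGFR in A431, L858R-specific in mutant lines) for DC50. Compounds were titrated 11 points, half-log, from 10 μM in duplicate onto cells in 10% FBS RPMI, incubated 6 h at 37°C.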
# [2] = target: T2, EGFR L858R-T790M-C797S (Homo sapiens, UniProt P00533, C797S/L858R/T790M); experiment: EGFR degradation, Total EGFR (L858R-specific) HTRF, NCI-H1975+CS; details: Table 9B; NCI-H1975 C797S clone, 6 hours, Total EGFR HTRF; read-out: H1975 C797S clone EGFR DC50
# T2 construct: generated using CRISPR technology to introduce the additional C797S mutation by Horizon Discovery; host or cells: NCI-H1975+CS (CRISPR knock-in of C797S)
# Source text: (§1) NCI-H1975 (harboring EGFR heterozygous L858R-T790M mutations) and NCI-H3255 (harboring EGFR heterozygous L858R mutation) were purchased from ATCC and NCI, respectively. NCI-H1975+CS (harboring EGFR heterozygous L858R-T790M-C797S mutations) was generated using CRISPR technology to introduce the additional C797S mutation by Horizon Discovery. A431 (harboring EGFR wildtype) was purchased from ATCC. RPMI 1640 no-phenol red medium and fetal bovine serum (FBS) were purchased from Gibco (Grand Island, NY, USA). Cell culture flasks and 384-well microplates were acquired from VWR (Radnor, PA, USA). Phosphorylated (pY1068) EGFR and Total EGFR (using L858R-specific detection antibody and pan-EGFR antibody for EGFR mutant cell lines and EGFR wild-type cell lines, respectively) HTRF assay kits were purchased from Cisbio (Bedford, MA, USA).
# (§2) Degradation of EGFR protein containing L858R mutation or wild-type was determined based on quantification of FRET signal using a Total EGFR (L858R-specific or pan-EGFR detecting) HTRF assay kit. Phospho-EGFR (pEGFR) inhibition was determined based on quantification of FRET signal using a pY1068 EGFR HTRF assay kit. In separate assay plates, test compounds were added to the 384-well plate from a top concentration of 10 μM with 11 points, half log titration in duplicates. For each assay, 12.5 uL of cells suspended in assay media (RPMI 1640 no-phenol red medium+10% FBS) at cell densities indicated for each cell line in Table 8 below were dispensed using a multi-channel pipette to 384-well low volume white HTRF microplates containing a duplicate concentration range of test compounds and DMSO controls. The plates were kept at 37° C. with 5% CO2 for 6 hours and then incubated with either phospho EGFR or Total EGFR HTRF detection antibodies according to the cell line and EGFR mutant being assayed. Cells treated in the absence of the test compound were the negative control. Positive control was set by wells containing all reagents but no cells. FRET signal was acquired on EnVision™ Multilabel Reader (PerkinElmer, Santa Clara, CA, USA). Compound concentration that achieves 50% degradation and inhibition was reported as DC50 and IC50, respectively.
# [3] = target: EGFR L858R (Homo sapiens, UniProt P00533, L858R); experiment: EGFR degradation, Total EGFR (L858R-specific) HTRF, NCI-H3255; design: NCI-H3255 (harboring EGFR heterozygous L858R mutation); host or cells: NCI-H3255; details: Table 9B; NCI-H3255 cells, 6 hours, Total EGFR HTRF; read-out: H3255 EGFR DC50
# Source text: as §1, §2
# T1 sequence (P00533 25-1210 T790M/L858R): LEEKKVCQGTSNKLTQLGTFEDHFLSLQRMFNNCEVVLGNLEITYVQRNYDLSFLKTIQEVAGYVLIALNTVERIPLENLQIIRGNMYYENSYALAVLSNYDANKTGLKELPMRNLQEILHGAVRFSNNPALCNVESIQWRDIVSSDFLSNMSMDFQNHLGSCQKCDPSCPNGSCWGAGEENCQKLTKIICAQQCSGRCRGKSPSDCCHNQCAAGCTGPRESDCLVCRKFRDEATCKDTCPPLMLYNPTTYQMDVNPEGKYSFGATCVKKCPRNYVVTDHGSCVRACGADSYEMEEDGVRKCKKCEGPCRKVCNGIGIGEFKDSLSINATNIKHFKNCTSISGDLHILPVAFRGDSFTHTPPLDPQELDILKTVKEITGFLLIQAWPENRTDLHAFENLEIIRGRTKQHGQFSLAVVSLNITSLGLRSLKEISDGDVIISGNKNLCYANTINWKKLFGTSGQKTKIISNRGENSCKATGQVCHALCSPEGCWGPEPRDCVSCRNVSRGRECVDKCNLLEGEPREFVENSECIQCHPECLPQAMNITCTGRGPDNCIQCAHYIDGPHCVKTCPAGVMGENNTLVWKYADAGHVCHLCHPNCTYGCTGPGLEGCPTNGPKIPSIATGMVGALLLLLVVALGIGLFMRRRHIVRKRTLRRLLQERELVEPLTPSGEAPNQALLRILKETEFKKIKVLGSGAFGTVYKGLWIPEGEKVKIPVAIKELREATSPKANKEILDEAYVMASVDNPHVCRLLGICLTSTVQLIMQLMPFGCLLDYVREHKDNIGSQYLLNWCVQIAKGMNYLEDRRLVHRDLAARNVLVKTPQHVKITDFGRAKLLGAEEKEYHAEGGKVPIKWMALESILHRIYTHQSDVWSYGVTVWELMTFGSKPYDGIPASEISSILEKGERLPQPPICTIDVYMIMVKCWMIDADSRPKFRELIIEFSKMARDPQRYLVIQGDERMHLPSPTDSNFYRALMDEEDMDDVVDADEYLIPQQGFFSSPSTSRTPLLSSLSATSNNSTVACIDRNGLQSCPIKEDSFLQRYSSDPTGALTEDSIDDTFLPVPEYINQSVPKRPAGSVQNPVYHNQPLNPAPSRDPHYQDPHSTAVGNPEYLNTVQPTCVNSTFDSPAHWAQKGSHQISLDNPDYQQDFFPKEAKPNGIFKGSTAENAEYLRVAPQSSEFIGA
# T2 sequence (P00533 25-1210 T790M/C797S/L858R): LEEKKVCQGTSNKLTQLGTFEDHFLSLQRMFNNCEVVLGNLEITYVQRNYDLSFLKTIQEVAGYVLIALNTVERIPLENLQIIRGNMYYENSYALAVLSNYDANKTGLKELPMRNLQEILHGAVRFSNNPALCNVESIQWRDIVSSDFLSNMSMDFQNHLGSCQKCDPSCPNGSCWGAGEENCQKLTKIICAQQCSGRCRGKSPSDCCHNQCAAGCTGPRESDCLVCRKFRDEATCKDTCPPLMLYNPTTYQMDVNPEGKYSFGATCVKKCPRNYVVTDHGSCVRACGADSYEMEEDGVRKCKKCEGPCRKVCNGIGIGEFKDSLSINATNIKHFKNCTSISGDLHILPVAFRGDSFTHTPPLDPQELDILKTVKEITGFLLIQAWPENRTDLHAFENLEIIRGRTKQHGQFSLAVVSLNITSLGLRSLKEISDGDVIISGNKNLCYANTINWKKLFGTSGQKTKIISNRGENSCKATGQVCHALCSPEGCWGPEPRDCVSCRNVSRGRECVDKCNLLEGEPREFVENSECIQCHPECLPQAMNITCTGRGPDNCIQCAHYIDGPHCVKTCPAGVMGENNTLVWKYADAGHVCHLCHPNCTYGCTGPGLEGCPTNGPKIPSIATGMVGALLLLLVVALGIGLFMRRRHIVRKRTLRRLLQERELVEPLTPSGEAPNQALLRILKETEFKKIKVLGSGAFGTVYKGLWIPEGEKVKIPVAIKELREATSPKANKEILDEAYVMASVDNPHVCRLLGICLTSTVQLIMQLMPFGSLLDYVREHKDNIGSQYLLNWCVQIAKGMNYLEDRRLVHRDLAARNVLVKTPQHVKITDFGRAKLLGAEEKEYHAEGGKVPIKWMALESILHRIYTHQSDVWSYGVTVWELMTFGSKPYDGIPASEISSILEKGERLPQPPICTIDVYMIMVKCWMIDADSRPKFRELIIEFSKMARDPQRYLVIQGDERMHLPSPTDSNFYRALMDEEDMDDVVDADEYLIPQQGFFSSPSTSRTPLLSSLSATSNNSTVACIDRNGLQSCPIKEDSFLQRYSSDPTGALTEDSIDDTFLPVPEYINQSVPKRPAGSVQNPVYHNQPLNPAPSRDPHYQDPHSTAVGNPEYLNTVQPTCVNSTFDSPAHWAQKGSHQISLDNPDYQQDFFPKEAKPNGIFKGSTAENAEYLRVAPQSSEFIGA
# Sequence of EGFR L858R (P00533 25-1210 L858R): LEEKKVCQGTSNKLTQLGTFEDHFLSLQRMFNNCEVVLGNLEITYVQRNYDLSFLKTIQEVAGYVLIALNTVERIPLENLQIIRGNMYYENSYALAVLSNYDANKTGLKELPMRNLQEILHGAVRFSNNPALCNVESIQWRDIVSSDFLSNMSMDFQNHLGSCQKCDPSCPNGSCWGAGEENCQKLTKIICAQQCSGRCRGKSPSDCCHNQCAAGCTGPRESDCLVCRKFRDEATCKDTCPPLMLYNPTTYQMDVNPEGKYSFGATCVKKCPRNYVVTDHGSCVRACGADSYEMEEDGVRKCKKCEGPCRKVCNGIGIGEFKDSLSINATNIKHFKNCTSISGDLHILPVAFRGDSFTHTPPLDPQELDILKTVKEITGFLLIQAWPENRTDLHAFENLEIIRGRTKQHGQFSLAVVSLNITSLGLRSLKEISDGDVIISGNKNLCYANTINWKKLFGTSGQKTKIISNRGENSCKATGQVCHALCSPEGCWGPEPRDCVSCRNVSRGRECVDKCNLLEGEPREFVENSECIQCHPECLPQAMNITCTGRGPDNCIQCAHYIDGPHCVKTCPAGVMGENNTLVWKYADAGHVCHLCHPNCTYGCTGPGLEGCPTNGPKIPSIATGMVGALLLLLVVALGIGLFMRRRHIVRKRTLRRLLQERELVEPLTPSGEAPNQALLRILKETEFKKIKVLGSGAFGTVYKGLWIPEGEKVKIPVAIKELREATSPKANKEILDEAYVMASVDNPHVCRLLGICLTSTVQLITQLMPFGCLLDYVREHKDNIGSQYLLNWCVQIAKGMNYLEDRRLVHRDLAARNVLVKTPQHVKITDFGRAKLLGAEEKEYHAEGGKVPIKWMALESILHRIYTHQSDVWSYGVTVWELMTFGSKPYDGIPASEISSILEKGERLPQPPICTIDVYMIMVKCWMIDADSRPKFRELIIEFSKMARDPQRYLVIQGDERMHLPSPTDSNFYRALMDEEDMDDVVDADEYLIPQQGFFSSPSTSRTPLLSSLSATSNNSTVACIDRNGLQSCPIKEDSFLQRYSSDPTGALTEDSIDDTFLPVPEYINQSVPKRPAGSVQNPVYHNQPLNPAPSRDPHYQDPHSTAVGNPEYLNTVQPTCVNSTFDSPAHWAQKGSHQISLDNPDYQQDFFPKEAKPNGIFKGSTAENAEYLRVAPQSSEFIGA
Compound,DC50 [1],DC50 [2],DC50 [3]
"O=C1CCC(Nc2ccc(N3CCC(O)(CC(=O)N4CC5(C4)CN(c4ccc(-c6cc(F)c7c(c6)C(=O)N(C(C(=O)Nc6ccccn6)c6ncn8c6CCC8)C7)cc4)C5)CC3)c(F)c2)C(=O)N1 (stereo not shown) [Compound 99, 2-(6,7-dihydro-5H-pyrrolo[1,2-c]imidazol-1-yl)-2-[6-[4-[2-[2-[1-[4-[(2,6-dioxo-3-piperidyl)amino]-2-fluoro-phenyl]-4-hydroxy-4-piperidyl]acetyl]-2,6-diazaspiro[3.3]heptan-6-yl]phenyl]-4-fluoro-1-oxo-isoindolin-2-yl]-N-(2-pyridyl)acetamide]",< 50 nM,< 50 nM,
O=C1CCN(c2ccc(N3CCC(O)(CC(=O)N4CC5(C4)CN(c4ccc(-c6cc(F)c7cn(C(C(=O)Nc8nccs8)c8ncn9c8CCC9)nc7c6)cc4)C5)CC3)c(F)c2)C(=O)N1 (stereo not shown) [Compound 147],,< 50 nM,
"O=C1CC[C@H](Nc2ccc(C3CCN(C(=O)CC4(O)CCN(c5ccc(-c6cc(F)c7cn(C(C(=O)Nc8nccs8)c8ncn9c8CCC9)nc7c6)cn5)CC4)CC3)c(F)c2)C(=O)N1 (stereo partly drawn) [Compound 150, 2-(6,7-dihydro-5H-pyrrolo[1,2-c]imidazol-1-yl)-2-[6-[6-[4-[2-[4-[4-[[(3S)-2,6-dioxo-3-piperidyl]amino]-2-fluoro-phenyl]-1-piperidyl]-2-oxo-ethyl]-4-hydroxy-1-piperidyl]-3-pyridyl]-4-fluoro-indazol-2-yl]-N-thiazol-2-yl-acetamide]",,< 50 nM,
"Cn1nc(N2CCC(=O)NC2=O)c2ccc(C3CCN(CC(=O)N4CC5(C4)CN(c4ccc(-c6cc(F)c7c(c6)C(=O)N(C(C(=O)Nc6nccs6)c6ncn8c6CCC8)C7)cc4)C5)C4(CC4)C3)cc21 (stereo not shown) [Compound 154, 2-(6,7-dihydro-5H-pyrrolo[1,2-c]imidazol-1-yl)-2-[6-[4-[2-[2-[7-[3-(2,4-dioxohexahydropyrimidin-1-yl)-1-methyl-indazol-6-yl]-4-azaspiro[2.5]octan-4-yl]acetyl]-2,6-diazaspiro[3.3]heptan-6-yl]phenyl]-4-fluoro-1-oxo-isoindolin-2-yl]-N-thiazol-2-yl-acetamide]",< 50 nM,< 50 nM,
"Cn1nc(N2CCC(=O)NC2=O)c2ccc(C3CCN(CC(=O)N4CC5(C4)CN(c4ccc(-c6cc(F)c7c(c6)C(=O)N(C(C(=O)Nc6nccs6)c6ncn8c6CCC8)C7)cn4)C5)CC3(F)F)cc21 (stereo not shown) [Compound 87, 2-(6,7-dihydro-5H-pyrrolo[1,2-c]imidazol-1-yl)-2-(6-(6-(6-(2-(4-(3-(2,4-dioxotetrahydropyrimidin-1(2H)-yl)-1-methyl-1H-indazol-6-yl)-3,3-difluoropiperidin-1-yl)acetyl)-2,6-diazaspiro[3.3]heptan-2-yl)pyridin-3-yl)-4-fluoro-1-oxoisoindolin-2-yl)-N-(thiazol-2-yl)acetamide]",< 50 nM,< 50 nM,
"O=C1CC[C@H](Nc2ccc(C3CCN(C(=O)CC4(O)CCN(c5ccc(-c6ccc7cn(C(C(=O)Nc8nccs8)c8ncn9c8CCC9)nc7c6F)cn5)CC4)CC3)c(F)c2)C(=O)N1 (stereo partly drawn) [Compound 151, 2-(6,7-dihydro-5H-pyrrolo[1,2-c]imidazol-1-yl)-2-[6-[6-[4-[2-[4-[4-[[(3S)-2,6-dioxo-3-piperidyl]amino]-2-fluoro-phenyl]-1-piperidyl]-2-oxo-ethyl]-4-hydroxy-1-piperidyl]-3-pyridyl]-7-fluoro-indazol-2-yl]-N-thiazol-2-yl-acetamide]",,< 50 nM,
"Cn1nc(N2CCC(=O)NC2=O)c2ccc(C3CCN(CC(=O)N4CCC(NC(=O)c5ccc(C#Cc6cc(F)c7c(c6)C(=O)N(C(C(=O)Nc6nccs6)c6ncn8c6CCC8)C7)cn5)CC4)CC3(F)F)cc21 (stereo not shown) [Compound 88, 5-[2-[2-[1-(6,7-dihydro-5H-pyrrolo[1,2-c]imidazol-1-yl)-2-oxo-2-(thiazol-2-ylamino)ethyl]-7-fluoro-3-oxo-isoindolin-5-yl]ethynyl]-N-[1-[2-[4-[3-(2,4-dioxohexahydropyrimidin-1-yl)-1-methyl-indazol-6-yl]-3,3-difluoro-1-piperidyl]acetyl]-4-piperidyl]pyridine-2-carboxamide]",< 50 nM,< 50 nM,
"O=C1CCC(Nc2ccc(N3CCC(O)(CC(=O)N4CCC(NC(=O)c5ccc(C#Cc6cc(F)c7c(c6)C(=O)N(C(C(=O)Nc6nccs6)c6ncn8c6CCC8)C7)cn5)CC4)CC3)c(F)c2)C(=O)N1 (stereo not shown) [Compound 96, 5-((2-(1-(6,7-dihydro-5H-pyrrolo[1,2-c]imidazol-1-yl)-2-oxo-2-(thiazol-2-ylamino)ethyl)-7-fluoro-3-oxoisoindolin-5-yl)ethynyl)-N-(1-(2-(1-(4-((2,6-dioxopiperidin-3-yl)amino)-2-fluorophenyl)-4-hydroxypiperidin-4-yl)acetyl)piperidin-4-yl)picolinamide]",< 50 nM,< 50 nM,
"O=C1CC[C@H](Nc2ccc(C3CCN(C(=O)CC4(O)CCN(c5ccc(-c6ccc7cn(C(C(=O)Nc8nccs8)c8ncn9c8CCC9)nc7c6F)cc5)CC4)CC3)c(F)c2)C(=O)N1 (stereo partly drawn) [Compound 149, 2-(6,7-dihydro-5H-pyrrolo[1,2-c]imidazol-1-yl)-2-[6-[4-[4-[2-[4-[4-[[(3S)-2,6-dioxo-3-piperidyl]amino]-2-fluoro-phenyl]-1-piperidyl]-2-oxo-ethyl]-4-hydroxy-1-piperidyl]phenyl]-7-fluoro-indazol-2-yl]-N-thiazol-2-yl-acetamide]",,< 50 nM,
"C[C@@H]1CC(O)(CC(=O)N2CC3(C2)CN(c2ccc(-c4cc(F)c5cn(C(C(=O)Nc6nccs6)c6ncn7c6CCC7)nc5c4)cc2)C3)C[C@H](C)N1c1ccc(NC2CCC(=O)NC2=O)cc1F (stereo partly shown) [Compound 148, 2-(6,7-dihydro-5H-pyrrolo[1,2-c]imidazol-1-yl)-2-[6-[4-[2-[2-[(2s,6r)-1-[4-[(2,6-dioxo-3-piperidyl)amino]-2-fluoro-phenyl]-4-hydroxy-2,6-dimethyl-4-piperidyl]acetyl]-2,6-diazaspiro[3.3]heptan-6-yl]phenyl]-4-fluoro-indazol-2-yl]-N-thiazol-2-yl-acetamide]",,< 50 nM,
"O=C1CCC(Nc2ccc(C3CCC(CC(=O)N4CCN(c5ccc(-c6cc(F)c7c(c6)C(=O)N(C(C(=O)Nc6nccs6)c6ncn8c6CCC8)C7)cc5)CC4)CC3)cc2)C(=O)N1 (stereo not shown) [Compound 177, 2-(6,7-dihydro-5H-pyrrolo[1,2-c]imidazol-1-yl)-2-(6-(4-(4-(2-(4-(4-((2,6-dioxopiperidin-3-yl)amino)phenyl)cyclohexyl)acetyl)piperazin-1-yl)phenyl)-4-fluoro-1-oxoisoindolin-2-yl)-N-(thiazol-2-yl)acetamide]",< 50 nM,,< 50 nM
"O=C1CCC(Nc2cc(F)c(N3CCC(O)(CC(=O)N4CC5(C4)CN(c4ccc(-c6cc(F)c7c(c6)C(=O)N(C(C(=O)Nc6nccs6)c6ncn8c6CCC8)C7)cc4)C5)CC3)c(F)c2)C(=O)N1 (stereo not shown) [Compound 103, 2-(6,7-dihydro-5H-pyrrolo[1,2-c]imidazol-1-yl)-2-[6-[4-[2-[2-[1-[4-[(2,6-dioxo-3-piperidyl)-amino]-2,6-difluoro-phenyl]-4-hydroxy-4-piperidyl]acetyl]-2,6-diazaspiro[3.3]hept-an-6-yl]-phenyl]-4-fluoro-1-oxo-isoindolin-2-yl]-N-thiazol-2-yl-acetamide]",< 50 nM,,< 50 nM
